What all share (type): functional
Conditions in all cases: read-out: Activity

Test [1] has as its system PC-12. As to the kind of experiment: Neuroprotective activity against amyloid beta(25-35)-induced cell death in rat PC12 cells assessed as cell viability at 10 uM incubated for 2 hrs prior to amyloid beta(25-35)-challenge measured after 24 hrs by MTT assay (reference value: 38.8 +/- 1%). Background: Tetrazolium dyes change colour on reduction, which living cells bring about.

Test [2] relates to PC-12. Put plainly: Neuroprotective activity against H2O2-induced cell death in rat PC12 cells assessed as cell viability at 10 uM incubated for 2 hrs prior to H2O2-challenge measured after 24 hrs by MTT assay (reference value: 53.7 +/- 1.7%).
Test [3] relates to PC-12. Put plainly: Neuroprotective activity against amyloid beta(25-35)-induced cell death in rat PC12 cells assessed as cell viability at 1 uM incubated for 2 hrs prior to amyloid beta(25-35)-challenge measured after 24 hrs by MTT assay (reference value: 38.8 +/- 1%).
Test [4] concerns PC-12. Put plainly: Neuroprotective activity against H2O2-induced cell death in rat PC12 cells assessed as cell viability at 1 uM incubated for 2 hrs prior to H2O2-challenge measured after 24 hrs by MTT assay (reference value: 53.7 +/- 1.7%).
Test [5] relates to PC-12. As to the kind of experiment: Neuroprotective activity against H2O2-induced cell death in rat PC12 cells assessed as cell viability at 10 uM incubated for 2 hrs prior to H2O2-challenge measured after 24 hrs by MTT assay (reference value: 53.1 +/- 1.1%).
Test [6] has as its system PC-12. As to the kind of experiment: Neuroprotective activity against amyloid beta(25-35)-induced cell death in rat PC12 cells assessed as cell viability at 1 uM incubated for 2 hrs prior to amyloid beta(25-35)-challenge measured after 24 hrs by MTT assay (reference value: 34.8 +/- 0.8%).
Test [7] relates to PC-12. Put plainly: Neuroprotective activity against amyloid beta(25-35)-induced cell death in rat PC12 cells assessed as cell viability at 10 uM incubated for 2 hrs prior to amyloid beta(25-35)-challenge measured after 24 hrs by MTT assay (reference value: 34.8 +/- 0.8%).
For test [8], the system named is PC-12. Put plainly: Neuroprotective activity against H2O2-induced cell death in rat PC12 cells assessed as cell viability at 1 uM incubated for 2 hrs prior to H2O2-challenge measured after 24 hrs by MTT assay (reference value: 53.1 +/- 1.1%).

As to `C/C=C(\C)C(=O)O[C@H]1c2cc(OC)c(OC)c(OC)c2-c2c(cc3c(c2OC)OCO3)[C@H](OC(=O)CC)[C@H](C)[C@H]1C`, the values for the viability at 10 µM in test [1] and in test [2] were 39.3% and 60.7%, respectively. Moreover, the viability at 1 µM was found to be 43.1% in test [3] and 54.6% in test [4].

As for `COc1cc2c(c(OC)c1OC)-c1c(cc3c(c1OC)OCO3)[C@H](O)[C@H](C)[C@H](C)C2` [ISOGOMISIN O], the viability at 10 µM amounted to 33.3% in test [1] and 55.8% in test [2]. In addition, the results for the viability at 1 µM in test [3] and in test [4] were 38% and 48.8%, respectively.

Turning to `COc1cc2c(c(OC)c1OC)-c1c(cc3c(c1OC)OCO3)[C@H](OC(=O)/C=C/c1ccccc1)[C@H](C)[C@H](C)C2` [KADSUPHILINS A], the viability at 10 µM in test [5] amounted to 52.5%; in test [7], 32.3%. The viability at 1 µM in test [6] is 35.3%; in test [8], 53%.

`COc1cc2c(c(OC)c1OC)-c1c(cc3c(c1OC)OCO3)[C@H](OC(C)=O)[C@H](C)[C@H](C)C2` [KADSURIN]: the viability at 10 µM in test [5] was determined as 44%; in test [7], 32.9%. In addition, the viability at 1 µM was 35.1% in test [6] and 57.2% in test [8].

With `C/C=C(\C)C(=O)Oc1c(OC)c(OC)cc2c1-c1c(cc(OC)c(OC)c1OC)[C@H](O)[C@H](C)[C@H](C)C2` [METHYL SCHISANTHERIN F], the viability at 10 µM in test [1] was 41%; in test [2], 53.4%. For the same molecule, the viability at 1 µM in test [3] turned out to be 41.4%; in test [4] it was 50.4%.

With `C/C=C(/C)C(=O)O[C@H]1c2cc3c(c(OC)c2-c2c(cc(OC)c(OC)c2OC)[C@H](OC(=O)/C(C)=C\C)[C@@H](C)[C@H]1C)OCO3` [POLYSPERLIGNAN A], the figures for the viability at 10 µM in test [1] and in test [2] were 46.4% and 58.2%, respectively. Besides, the viability at 1 µM in test [3] stood at 39.9%; in test [4] it was 55.8%.

For `C/C=C(\C)C(=O)O[C@H]1c2cc3c(c(OC)c2-c2c(cc(OC)c(OC)c2OC)[C@H](OC(C)=O)[C@@H](C)[C@H]1C)OCO3` [POLYSPERLIGNAN B], the viability at 10 µM worked out at 58.9% in test [5] and 34.1% in test [7]. Also, the viability at 1 µM turned out to be 36.4% in test [6] and 55.9% in test [8].

As for `C/C=C(/C)C(=O)O[C@H]1c2cc3c(c(OC)c2-c2c(cc(OC)c(OC)c2OC)[C@H](OC(=O)/C=C/c2ccccc2)[C@@H](C)[C@H]1C)OCO3` [POLYSPERLIGNAN E], the viability at 10 µM in test [1] was 39.7%; in test [2], 58.9%. The viability at 1 µM was 39% in test [3] and 57.1% in test [4].

For `COc1cc2c(c(OC)c1OC)-c1c(cc3c(c1OC)OCO3)[C@H](OC(=O)/C=C\c1ccccc1)[C@H](C)[C@H](C)C2` [POLYSPERLIGNAN F], the values for the viability at 10 µM in test [1] and in test [2] were 36.4% and 58.5%, respectively. Also, the viability at 1 µM was determined as 38.4% in test [3] and 55.2% in test [4].

In the case of `C/C=C(/C)C(=O)Oc1c(OC)c(OC)cc2c1-c1c(cc(OC)c(OC)c1OC)[C@H](O)[C@H](C)[C@H](C)[C@H]2OC(=O)/C(C)=C\C` [POLYSPERLIGNAN I], the viability at 10 µM in test [1] was 41.2%; in test [2], 53.7%. Also, the viability at 1 µM in test [3] turned out to be 39%; in test [4] it was 53.3%.

Turning to `COc1cc2c(c(OC)c1OC)-c1c(cc3c(c1OC)OCO3)[C@H](O)[C@@H](C)[C@@H](C)C2` [YUNNANKADSURIN B], the viability at 10 µM in test [5] came out at 53.3%; in test [7] it was 33.2%. The viability at 1 µM in test [6] turned out to be 35.2%; in test [8] it was 51%.

(Values after ChEMBL document CHEMBL2010779, “Dibenzocyclooctadiene lignans from Kadsura polysperma and their antineurodegenerative activities” (2012).)
